Results as given in ChEMBL document CHEMBL1201862, “PubChem BioAssay data set” (2004).
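1) Cells in 96-well plates. 2) Compound, 48 h, 5 concentrations. 3) Linear interpolation between surrounding doses. 4) Unreached endpoint = highest concentration. GI50 = concentration required for 50% inhibition of growth.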 Calls of active or inactive are those of the source. Cut-off read from the data, not from the text of the source: active = GI50 up to about 1.1 µM and inactive = higher.

What was measured:
Test in all cases: growth of human tumour cells (NCI), 48 h
UO-31 = test system: UO-31
LOX IMVI = test system: LOX IMVI
HOP-92 = test system: HOP-92
SK-MEL-2 = test system: SK-MEL-2
EKVX = test system: EKVX
OVCAR-8 = test system: OVCAR-8
COLO 205 = test system: COLO 205
SN12C = test system: SN12C
SW-620 = test system: SW-620
NCI-H522 = test system: NCI-H522
SK-MEL-28 = test system: SK-MEL-28
MOLT-4 = test system: MOLT-4
SNB-19 = test system: SNB-19
SR = test system: SR
SNB-75 = test system: SNB-75
HCT-116 = test system: HCT-116
NCI-H460 = test system: NCI-H460

Compound: [O-][S+]1CSSC1
- GI50 (UO-31): 18.7 µM (inactive)
- GI50 (LOX IMVI): 2.2 µM (inactive)
- GI50 (HOP-92): 26.1 µM (inactive)
- GI50 (SK-MEL-2): 15.6 µM (inactive)
- GI50 (EKVX): 31.3 µM (inactive)
- GI50 (OVCAR-8): 19.6 µM (inactive)
- GI50 (COLO 205): 17.1 µM (inactive)
- GI50 (SN12C): 12 µM (inactive)
- GI50 (SW-620): 15 µM (inactive)
- GI50 (NCI-H522): 11.4 µM (inactive)
- GI50 (SK-MEL-28): 27.4 µM (inactive)
- GI50 (MOLT-4): 5.36 µM (inactive)
- GI50 (SNB-19): 41.6 µM (inactive)
- GI50 (SR): 9.79 µM (inactive)
- GI50 (SNB-75): 27.7 µM (inactive)
- GI50 (HCT-116): 16.2 µM (inactive)

Compound: CC1=C(/C=C/C2=CC(=C\C(=O)O)/CC(C3=C(C)CCCC3(C)C)C2)C(C)(C)CCC1 (stereo not given)
- GI50 (UO-31): 10.7 µM (inactive)
- GI50 (LOX IMVI): 13.7 µM (inactive)
- GI50 (HOP-92): 11.2 µM (inactive)
- GI50 (SK-MEL-2): 11.3 µM (inactive)
- GI50 (NCI-H460): 13.9 µM (inactive)
- GI50 (EKVX): 11.3 µM (inactive)
- GI50 (OVCAR-8): 14.7 µM (inactive)
- GI50 (COLO 205): 16.4 µM (inactive)
- GI50 (SN12C): 15.6 µM (inactive)
- GI50 (SW-620): 15 µM (inactive)
- GI50 (NCI-H522): 10.6 µM (inactive)
- GI50 (SK-MEL-28): 16 µM (inactive)
- GI50 (MOLT-4): 3.01 µM (inactive)
- GI50 (SNB-19): 14.3 µM (inactive)
- GI50 (SR): 5.65 µM (inactive)
- GI50 (SNB-75): 14.6 µM (inactive)
- GI50 (HCT-116): 15 µM (inactive)

Compound: COc1cc(C2C(Cl)C(=O)N2n2cnc3ccccc3c2=O)ccc1O (stereo not given)
- GI50 (UO-31): 56.4 µM (inactive)
- GI50 (LOX IMVI): > 100 µM (inactive)
- GI50 (SK-MEL-2): > 100 µM (inactive)
- GI50 (NCI-H460): > 100 µM (inactive)
- GI50 (EKVX): > 100 µM (inactive)
- GI50 (OVCAR-8): > 100 µM (inactive)
- GI50 (COLO 205): > 100 µM (inactive)
- GI50 (SN12C): 89.5 µM (inactive)
- GI50 (SW-620): > 100 µM (inactive)
- GI50 (NCI-H522): 34 µM (inactive)
- GI50 (SK-MEL-28): 88.7 µM (inactive)
- GI50 (MOLT-4): > 100 µM (inactive)
- GI50 (SNB-19): > 100 µM (inactive)
- GI50 (SR): 83.6 µM (inactive)
- GI50 (SNB-75): 26.1 µM (inactive)
- GI50 (HCT-116): > 100 µM (inactive)

Compound: COc1cc(/C=N/N=C(\N)NO)c(Cl)cc1O
- GI50 (UO-31): 94 µM (inactive)
- GI50 (LOX IMVI): 32.7 µM (inactive)
- GI50 (HOP-92): 4.97 µM (inactive)
- GI50 (SK-MEL-2): 71.6 µM (inactive)
- GI50 (NCI-H460): > 10 µM (inactive)
- GI50 (EKVX): 43.8 µM (inactive)
- GI50 (OVCAR-8): 49.5 µM (inactive)
- GI50 (COLO 205): 38.2 µM (inactive)
- GI50 (SN12C): 58.2 µM (inactive)
- GI50 (SW-620): 77.8 µM (inactive)
- GI50 (NCI-H522): 31.4 µM (inactive)
- GI50 (SK-MEL-28): 38.5 µM (inactive)
- GI50 (MOLT-4): > 100 µM (inactive)
- GI50 (SNB-19): > 100 µM (inactive)
- GI50 (HCT-116): 38.6 µM (inactive)

Compound: O=C(/C=C/c1ccc(Cl)c(Cl)c1)c1ccccc1Cl
- GI50 (UO-31): 14.5 µM (inactive)
- GI50 (LOX IMVI): 13.2 µM (inactive)
- GI50 (HOP-92): 16.7 µM (inactive)
- GI50 (NCI-H460): 11.6 µM (inactive)
- GI50 (EKVX): 17.3 µM (inactive)
- GI50 (OVCAR-8): 6 µM (inactive)
- GI50 (COLO 205): 16.1 µM (inactive)
- GI50 (SN12C): 16.6 µM (inactive)
- GI50 (SW-620): 4.91 µM (inactive)
- GI50 (NCI-H522): 11.8 µM (inactive)
- GI50 (SK-MEL-28): 8.95 µM (inactive)
- GI50 (MOLT-4): 27.7 µM (inactive)
- GI50 (SNB-19): 10.3 µM (inactive)
- GI50 (SR): 4.42 µM (inactive)
- GI50 (SNB-75): 9.14 µM (inactive)
- GI50 (HCT-116): 4.71 µM (inactive)

Compound: O=C1NC(=S)NC(=O)C1=Cc1ccc([N+](=O)[O-])o1
- GI50 (UO-31): 39.2 µM (inactive)
- GI50 (LOX IMVI): 17.6 µM (inactive)
- GI50 (HOP-92): 20.7 µM (inactive)
- GI50 (SK-MEL-2): 46.9 µM (inactive)
- GI50 (NCI-H460): > 100 µM (inactive)
- GI50 (EKVX): 21.1 µM (inactive)
- GI50 (OVCAR-8): 29.4 µM (inactive)
- GI50 (COLO 205): 20.2 µM (inactive)
- GI50 (SN12C): 16.3 µM (inactive)
- GI50 (SW-620): 23 µM (inactive)
- GI50 (NCI-H522): 19.9 µM (inactive)
- GI50 (SK-MEL-28): 25 µM (inactive)
- GI50 (MOLT-4): 19.7 µM (inactive)
- GI50 (SNB-19): > 100 µM (inactive)
- GI50 (SR): 19.6 µM (inactive)
- GI50 (SNB-75): 16.2 µM (inactive)
- GI50 (HCT-116): 15 µM (inactive)

Compound: COc1ccc(-c2oc3c(OC)c(OC)c(OC)c(O)c3c(=O)c2OC)cc1O
- GI50 (UO-31): 0.082 µM (active)
- GI50 (LOX IMVI): 0.0935 µM (active)
- GI50 (HOP-92): < 0.01 µM (active)
- GI50 (SK-MEL-2): 0.0546 µM (active)
- GI50 (NCI-H460): 0.126 µM (active)
- GI50 (EKVX): 0.836 µM (active)
- GI50 (OVCAR-8): 0.341 µM (active)
- GI50 (COLO 205): 11.1 µM (inactive)
- GI50 (SN12C): 0.0641 µM (active)
- GI50 (SW-620): 0.038 µM (active)
- GI50 (NCI-H522): < 0.01 µM (active)
- GI50 (SK-MEL-28): < 0.01 µM (active)
- GI50 (MOLT-4): 0.0989 µM (active)
- GI50 (SNB-19): 0.347 µM (active)
- GI50 (SR): 0.0702 µM (active)
- GI50 (SNB-75): 0.0443 µM (active)
- GI50 (HCT-116): 0.0783 µM (active)

Compound: C/C(=C\Cc1cc(O)ccc1O)CCc1c(C)cc(O)c(C=O)c1C [PANICEIN B3]
- GI50 (UO-31): 23.5 µM (inactive)
- GI50 (HOP-92): 18.9 µM (inactive)
- GI50 (SK-MEL-2): 23 µM (inactive)
- GI50 (NCI-H460): 24.3 µM (inactive)
- GI50 (EKVX): 31.1 µM (inactive)
- GI50 (OVCAR-8): 17.1 µM (inactive)
- GI50 (COLO 205): 17.7 µM (inactive)
- GI50 (SN12C): 28.2 µM (inactive)
- GI50 (SW-620): 45.9 µM (inactive)
- GI50 (NCI-H522): 10.1 µM (inactive)
- GI50 (SK-MEL-28): 24 µM (inactive)
- GI50 (MOLT-4): > 100 µM (inactive)
- GI50 (SNB-19): 44.5 µM (inactive)
- GI50 (SR): 28.4 µM (inactive)
- GI50 (SNB-75): 13.9 µM (inactive)
- GI50 (HCT-116): 19.3 µM (inactive)
